Laboratory results: patent US20210100909A1, “Polymeric Methylprednisolone Conjugates and Uses Thereof” (United States Government As Represented By The Department …, priority 2019, published 2021)

How the values were obtained:
[1] = intravenous; cited from earlier work
[2] = Fasting blood glucose level; type: in vivo, rat; settings: 2 days post injury
Description: Rats were fasted overnight in clean cages with free access to water in new clean bottles. The next morning prior to sacrifice, fasted blood glucose measurement was taken by applying tail blood to a Contour Blood Glucose Monitoring System (Bayer).

[3] = Body weight and food intake after acute SCI; type: in vivo, rat
Description: All animals were maintained on a 12:12-h light/dark cycle with lights on at 07:00 h in a temperature-controlled (20±2° C.) vivarium. Spinal cord transection surgery was performed as previously described. In brief, 9-week-old Wistar rats (Charles River) were anesthetized by inhalation of isofluorane (3-5%) and hair was removed with a clipper. Skin over the back was cleaned with betadine and isopropyl alcohol. After making a midline incision the spinal cord at the site of transection (T4) was visualized by laminectomy, and the spinal cord was transected with microscissors. The space between transected ends of the spinal cord was filled with surgical sponge and the wound was closed in two layers with suture. Urine was manually expressed 3 times daily until automaticity develops, then as needed. Baytril was administered for the first 3 to 5 days postoperatively then as needed for sign of cloudy or bloody urine or wound infection. Sham-transected animals received a laminectomy-only surgery.
Injectable methylprednisolone (MP) solution (62.5 mg/ml) was obtained from Pfizer. MP was conjugated to the chain terminus of methoxy HPMA, an amphiphilic macromolecular prodrug to produce a polymeric methylprednisolone conjugate. […]

RANKL = RANKL mRNA and OPG/RANKL ratio in bone; type: in vivo, rat; settings: whole bone RNA
Description: (§1) Total bone RNA was extracted as previously described with some modifications. Briefly, long bones were dissected free of soft tissues, and bone marrow were flushed away with PBS using a 27 G ½ needle-syringe. The bone samples (˜1 g) were longitudinally cut into small piece and then digested 3 times with 2 mg/ml collagenase type I (Gibco, >150 Units; 20 ml), one time with 5 mM EDTA (Sigma-Aldrich, 10 ml)), and one more with the collagenase and EDTA, each for 25 min on a Shaker with rotation at 150 rpm at 370 C. Following the digestions, the bone samples were crushed using a mortar and pestle in liquid nitrogen. RNA was extracted from the lysate using the TRizol reagent (Sigma Aldrich) according to the manufacturer's instructions.
(§2) Real time PCR was used for the determination of mRNA levels as described previously. One μg of total RNA was used to synthesize the first strand cDNA by the High Capacity cDNA Reverse Transcription Kit (Applied Biosystems). qPCR was performed with an Applied Biosystems (ABI) Via 7 thermal cycler using ABI Taqman 2×PCR mix and ABI Assay on Demand qPCR primers. Changes in expression were calculated using the 2-ΔΔCt method using 18S RNA as the internal control.

gastrocnemius muscle = assay: Muscle histology (H&E) of gastrocnemius, fiber cross-sectional area; type: in vivo, rat
Description: Pieces of gastrocnemius muscle were frozen in isopentane pre-cooled on dry ice and stored at −80° C. Transverse sections (10 μm) were then cut on Leika CM3050S cryostat and mounted directly onto cooled glass slides followed by hematoxylin & eosin (H&E) staining. Stained sections were viewed in the EVOS FL Auto system (Life Technologies). Fiber size measurement and distribution was performed using the ImageJ software (NIH).

TNF-α [4] = assay: TNF-α immunostaining of spinal cord (inflammation); type: in vivo, rat; settings: 7 days post injury
Description: (§3) Injectable methylprednisolone (MP) solution (62.5 mg/ml) was obtained from Pfizer. MP was conjugated to the chain terminus of methoxy HPMA, an amphiphilic macromolecular prodrug. In parallel, IRDye® 800CW-MP-HPMA (MP-Nano-IRDye) and Alexa Fluor 488-labeled HPMA-MP (MP-Nano-Alexa 488) were also synthesized for optical imaging to visualize the bio-distribution of MP-Nano. Immediately after spinal cord transection, animals were administered an intravenous injection of freshly prepared MP-Nano (60 mg/kg, equivalent to 20% free MP dose at 30 mg/kg), MP (30 mg/kg) or vehicle (propylene glycol) by tail vein, followed by implantation of an Alzet pump (Durect Co, Cupertino, Calif., USA) which provided a 24-h infusion of MP at 5.4 mg/kg/hr (SCI-MP), or vehicle (propylene glycol) (SCI-veh and SCI-Nano-MP) into a subcutaneous pocket. These dosing of MP corresponds on an mg per kg basis to that prescribed by the Bracken protocol. Sham-transected animals underwent laminectomy and implantation of the same Alzet pumps, with vehicle (propylene glycol) infusion instead, as baseline controls.
(§4) At 2 and 7 days after injury, animals (sham, SCI-veh, SCI-MP, SCI-Nano-MP, n=5 animals for each condition and time point) were perfused transcardially with 4% paraformaldehyde. […] Fluorescence intensity quantifications were performed in the ImageJ software (NIH).

FOXO1 = FOXO1 protein level in muscle (western blot); type: in vivo, rat
Description: (§5) Total RNAs from gastrocnemius, soleus and bone were extracted using the TRI reagent (Sigma-Aldrich). For western blot analysis, gastronemius and soleus muscle tissue were lysed in RIPA buffer. Protein concentrations were determined using the BCA method. 30 μg protein lysate was used for the SDS-PAGE protein separation, and blots were probed with FOXO1 antibody.

TNF-α [5] = assay: TNF-α mRNA in gastrocnemius and soleus muscle; type: in vivo, rat; settings: 2 days post injury
Description: as §5, §2

nitrotyrosine = assay: Nitrotyrosine immunostaining of spinal cord (oxidative stress); type: in vivo, rat; settings: 7 days post injury
Description: as §3, §4

GLUT4 = GLUT4 gene expression in gastrocnemius muscle (qPCR); type: in vivo, rat; settings: SCI animals
Description: as §5, §2

[6] = Skeletal muscle mass after acute SCI; type: in vivo, rat
Description: At the end of animal study, animals were euthanized by inhalation of isofluorane prior to harvesting of tissue for study. Gastrocnemius, soleus, plantaris, EDL, bicep and tricep muscle on both sides were dissected, weighed and stored at −80° C. for further analysis. The leg was removed using sterile technique; careful dissection was performed to free the head of the femur from the pelvis. To preserve bone for micro-CT study, the left leg was removed and placed into tubes containing 4% PFA overnight, after which the PFA will be replaced with 70% ethanol for storage. The right femur and tibia (n=4-5 per group) were placed in ice-cold Minimum Essential Alpha Medium (α-MEM), and then immediately processed for extraction of total RNA from bone.

G6PC = G6PC gene expression in gastrocnemius muscle (qPCR); type: in vivo, rat; settings: SCI animals
Description: as §5, §2

[7] = Areal bone mineral density by DXA; type: in vivo, rat
Description: (§6) Areal bone mineral density (BMD) measurements were performed by using a small animal dual-energy X-ray absorptiometer (DXA) (Lunar Piximus, Fitchburg, Wis., USA) as previously described. Volumetric BMD and bone architecture of the distal femur were assessed by a Scanco μCT scanner (μCT-40; Scanco Medical AG, Bassersdorf, Switzerland) at […] isotropic voxel size as previously described.

[8] = Bone architecture by high-resolution μCT; type: in vivo, rat
Description: as §6

SOST = SOST mRNA in bone; type: in vivo, rat; settings: p<0.05
Description: as §1, §2

[9] = system: TRAP, calcitonin receptor (CTR) and Integrin β3; assay: Osteoclastic marker mRNA in bone (TRAP, CTR, Integrin β3); type: in vivo, rat; settings: whole bone RNA
Description: as §1, §2

[10] = system: MAFbx/atrogin-1 and MuRF1; assay: MAFbx and MuRF1 mRNA in muscle; type: in vivo, rat; settings: 2 days post injury
Description: as §5, §2

SMILES: C[C@H]1C[C@@H]2[C@H]([C@@H](O)C[C@@]3(C)[C@H]2CC[C@]3(O)C(=O)CO)[C@@]2(C)C=CC(=O)C=C12 [MP, methylprednisolone]
- pharmacokinetic half-life [1]: 2.5 to 3 h
- fasting glucose level vs. sham [2]: +10.4%
- body weight loss ([3]; Day 1 and Day 2 post injury, vs control animals): significantly higher weight loss
- food intake ([3]; vs all other experiment groups): Pronounced decrease of food intake
- decrease in the OPG/RANKL ratio vs. sham (RANKL): about three-fold
- mRNA level of RANKL vs. sham (RANKL): ~7 fold
- change of fiber cross-sectional area (gastrocnemius muscle): −40%
- cross-sectional area and fiber size distribution (gastrocnemius muscle; in words): significant left shift of fiber size
- change of SCI-induced TNF-α expression vs. SCI-veh (TNF-α [4]): −32.5%
- FOXO1 protein level in gastrocnemius and soleus muscle vs. SCI-veh (FOXO1): drastically elevated
- mRNA level of TNF-α in gastrocnemius and soleus muscle (TNF-α [5]): significantly increased
- change of SCI-induced accumulation of nitrotyrosine vs. SCI-veh (nitrotyrosine): −40.0%
- change of GLUT4 expression (GLUT4): −56.5%
- muscle mass gastrocnemius vs. sham ([6]; NS): −12.5%
- muscle mass biceps vs. sham ([6]; p<0.01): −14.6%
- muscle mass EDL vs. sham ([6]; p<0.05): −10.4%
- G6PC expression vs. sham (G6PC): ~8 fold
- decrease in BMD at the distal femur vs. sham [7]: 11%
- decrease of BMD at the proximal tibia vs. sham [7]: 11.2%
- cortical architecture of the femur midshaft ([8]; cortical bone volume, number, thickness, separation): No significant change
- trabecular bone architecture of the distal femur ([8]; μCT structural parameters): more significant change in each of those structural parameters than SCI-veh group
- levels of SOST mRNA vs. Sham (SOST): −22%
- osteoclastic markers TRAP, CTR and Integrin β3 mRNA vs. sham [9]: increase
- MAFbx and MuRF1 mRNA level in gastrocnemius muscle [10]: more significant induction
- MAFbx mRNA level in soleus vs. SCI-veh group [10]: more significant increases
